Read-outs that look alike come from different tables or passages of the source.
Columns and labels:
[1] = test system: HepG2 cells; test: Lipid droplet accumulation inhibition (LDAI) assay, Oil Red O, oleic acid-loaded cells; type: cell-based, human; conditions: HepG2 + 0.25 mM oleic acid, vs untreated control (+OA)
Procedure: LDAI assay: LDAI activity was determined using an Oil Red O assay with 24-well plates (n = 4 per treatment). Staining of LDs in cultured hepatocytes was performed according to the manufacturer’s instructions, based on the Oil Red O staining assay. Briefly, HepG2 cells (1.5 × 10^4/well) were supplemented with 10% FBS, cultured, seeded in 35-mm dishes, and treated with the tested samples after 24 h. Oil Red O, a fat-soluble dye, is widely used for staining neutral lipids in LDs, as described in the Supplementary Materials. […]
2 1.2. Cytotoxicity assay dropwise under ice-cooling. […]
Lipid droplet accumulation inhibition assay and Real-Ti me LDAI acid tryptophan (9) and compound 12 were subjected to acid conversion at 90 °C accumulation in acetic acid to obtain compound 2 (1H and 13C, see in Supporting Information). Lipid droplet accumulation inhibition (LDAI) activity was determined using an Synthesis of Compound 4. To a stirred soln . compound 3 in MeOH was added oilred assay in a 24-well plate according to the manufacturer ’sinstructions (n = 4 with NaOH (2 mol/L). Compound 4 was obtained after stirringthe mixture at 65℃ per each treatment). Real-time oleic induced-LD inhibition was performed by for 5 h. (1H and 13C, see Figures S10 and S11). We also prepared similar using a Nikkon microscope. Morphological analysis of HepG2 cells after compounds without any substituent at the C-1 position in the C-ring using a one- treatment with control(-OA) and (+OA) or compound at different concentrations pot Pictet–Spengler reaction (6-8). was determined by staining with AO/EB.
Synthetic b-carboline alkaloids (1-8): 1.4. Oil Red O Staining.
CAS Registry Number of all the series of synthetic b-carboline alkaloids (1-8) HepG2 cells were cultured and treated in 35 mm dishes, as described above. were subjected to biological evaluation: 1H-Pyrido[3,4-b]indole-3-carboxylic acid, Oil Red O dye was used for LD staining. Oil Red O was dissolved in isopropanol 1-[5-[(acetyloxy)methyl]-2-furanyl]-2,3,4,9-tetrahydro-, methyl ester, (1S-trans)- as 3 mg/mL and diluted with water so that isopropanol became 60%. Oil Red O (9CI) (1,CAS Registry Number 11 5 1 0 7-75-0;11 5 1 0 7-76-1);2,3,4,9-Tetrahydro-1-solutionwasfilteredbya0.4 μm pore syringe filter.For cellular staining, the […]

[2] = test system: HepG2 cells; test: Accumulated triacylglycerol species by LC-MS/MS in oleic acid-loaded cells; type: cell-based, human; conditions: for Number of accumulated triacylglycerol molecular species inhibited: 24 h of treatment; for inhibition at 200 µM: Homo sapiens, HepG2, 24 h
Procedure: Tested compounds (200 μM) were added to cultured HepG2 cells loaded with oleic acid and incubated at 37 °C for 24 h, as previously described. Centrifuged samples were analyzed using an LC/MS orbitrap. Chromatographic separation was performed using a Shimadzu Prominence UHPLC system with a binary solvent delivery system and a standard auto-sampler. An Atlantis® T3 column (2.1 × 150 mm, 3 μm, Waters) was used for separation, with a flow rate of 200 μL/min. The mobile phase consisted of A: 10 mM ammonium acetate solution; B: isopropanol; and C: methanol. Positive mode: 0–1 min, 6% B and 90% C; 1–10 min, 83% B and 15% C; 10–19 min, 83% B and 15% C; 19–19.5 min, 6% B and 90% C; 19.5–22 min, 6% B and 90% C. The injection volume was 10 μL. The column temperature was maintained at 40 °C. The LC/MS parameters were as previously described.

[3] = test system: HepG2 cells; test: Cytotoxicity / lipocytotoxicity assay (CCK-8); type: cell-based; conditions: HepG2
Procedure: (§1) HepG2 cells were purchased from the American Type Culture Collection (ATCC) (Manassas, VA, USA). High-glucose DMEM containing 10% heat-inactivated FBS and 1% penicillin–streptomycin was maintained under a humidified atmosphere at 37 °C with 5% CO2, as indicated in the Supplementary Materials. HepG2 cells (1.5 × 10^4/well) in DMEM supplemented with 10% FBS were seeded into a 96-well plate. A cytotoxicity assay was performed according to the manufacturer’s protocol using CCK-8 (Dojindo Molecular Technologies), as indicated in the Supplementary Materials (Materials and Methods). […]
(§2) 2 1.2. Cytotoxicity assay […] HepG2 cells (1.5 × 10^4/well) in DMEM supplemented with 10% FBS were under reduced pressure, and H2O (25 ml) was added. Then the solution was seeded into a 96-well plate. The cytotoxicity assay was done using CCK-8 extracted with AcOEt after adjusted to 9–10 with aq. NaOH solution. The organic (Dojindo Molecular Technologies) according to the manufacturer's protocol. […]
(§3) Compounds 1 and 3. To a stirred soln. Compound 10 (218 mg, 1.00 mmol), 5- Technologies, Rockville, USA) according to the manufacturer ’sinstructions. Cell Acetoxymethylfurfural (1, 168 mg, 1.00 mmol) and Nano CuO (7.955 mg, 0.1 suspension (100 μl/well) was inoculated in a 96-well plate (Iwaki, Japan), and mmol) were added 6 ml of DMF. The mixture was stirred at 90℃ for 16 h. The pH once monolayers were observed, treatments were added (n = 3 per each of the aqueous solution was adjusted to 9–10 with aq NaOH solution after adding treatment). Cells were then pre-incubated with the treatments for 24 h before H O. After extracting the solution with AcOEt, the organic layer was washed with assay to determine cell viability.Absorbance was measured at 450 nm using a 2 plate reader (PerkinElmer-ARVO-MX-ID 10533234, Japan). […]
(§4) [5-(hydroxymethyl)-2-furanyl]-1H-pyrido[3,4-b]indole-3-carboxylic acid (2, CAS culture medium was removed from each dish, and cells were washed Registry Number 896466-77-6); flazine methyl ester acetate (3, CAS Registry and rinsed with 1× PBS. Cells were then fixed for 20 min in 10% formalin and Number 104537-95-3); flazin (4, CAS Registry Number 100041-05-2); washed twice using PBS. Then, Oil Red O dye was added to the dishes and incubated for 20 min. Finally, the dye was removed from each dish and cells 5

[4] = Cytotoxicity / lipocytotoxicity assay (CCK-8); type: cell-based; conditions: human, HepG2 cells
Procedure: as §1, §2, §3, §4

[5] = 24 h, HepG2 + OA, vs control (+OA), read-out: Inhibition of accumulated TAG 48:4
[6] = 24 h, HepG2 + OA, vs control (+OA), read-out: Inhibition of accumulated TAG 50:3
[7] = 24 h, HepG2 + OA, vs control (+OA), read-out: Inhibition of accumulated TAG 50:5
[8] = 24 h, HepG2 + OA, vs control (+OA), read-out: Inhibition of accumulated TAG 52:4
[9] = 24 h, HepG2 + OA, vs control (+OA), read-out: Inhibition of accumulated TAG 52:5
[10] = 24 h, HepG2 + OA, vs control (+OA), read-out: Inhibition of accumulated TAG 52:6
[11] = 24 h, HepG2 + OA, vs control (+OA), read-out: Inhibition of accumulated TAG 52.7
[12] = 24 h, HepG2 + OA, vs control (+OA), read-out: Inhibition of accumulated TAG 54:7
[13] = 24 h, HepG2 + OA, vs control (+OA), read-out: Inhibition of accumulated TAG 56.9
[14] = HepG2, DMEM loaded with fatty acid (+OA), read-out: Lipocytotoxicity (LC50), concentration at which 50% of cells died
[15] = HepG2, DMEM without fatty acid (−OA), read-out: Cytotoxicity (CC50), concentration at which 50% of cells died

| Structure (SMILES) | inhibition at 200 µM ([1]; Homo sapiens, HepG2, 24 h) | inhibition at 400 µM ([1]; Homo sapiens, HepG2, 24 h) | Number of accumulated triacylglycerol molecular species inhibited ([2]; 200 μM, HepG2 + OA) | inhibition at 200 µM [2, 5] | inhibition at 200 µM [2, 6] | inhibition at 200 µM [2, 7] | inhibition at 200 µM [2, 8] | inhibition at 200 µM [2, 9] | inhibition at 200 µM [2, 10] | inhibition at 200 µM [2, 11] | inhibition at 200 µM [2, 12] | inhibition at 200 µM [2, 13] | Cytotoxicity (in words) [3] | CC50 at 24 h [4, 14] | CC50 at 24 h [4, 15] | other results |
| --- | --- | --- | --- | --- | --- | --- | --- | --- | --- | --- | --- | --- | --- | --- | --- | --- |
| O=C(O)C1Cc2c([nH]c3ccccc23)C(c2ccc(CO)o2)N1 (stereo not shown) [Compound 2, 1,2,3,4-tetrahydro-1-(5-(hydroxymethyl)-2-furanyl)-9H-pyrido [3,4-b]indole-3-carboxylic acid] | 29.1% | 74% | twenty-five | 23.4% | 26.6% | 33.7% | 28.1% | 9.5% | 33.4% | 35.1% | 30% | 28.3% | no cytotoxicity | 484 µM | > 700 µM | inhibition at 100 µM ([1]; Homo sapiens, HepG2, 24 h, 100 μM): 25.5%; inhibition at 200 µM ([2]; 24 h, HepG2 + OA, vs control (+OA), read-out: Inhibition of accumulated TAG 56:10): 45.9%; inhibition at 200 µM ([2]; 24 h, HepG2 + OA, vs control (+OA), read-out: Inhibition of accumulated TAG 58:12): 50 to 74%; inhibition at 200 µM ([2]; 24 h, except TAGs 58:12, 46:3, 54:6, and 56:7, read-out: Inhibition of most of the accumulated triacylglycerol molecular species): 25 to 49% |
| O=C(O)c1cc2c([nH]c3ccccc32)c(-c2ccc(CO)o2)n1 [Compound 4, flazin] | 20% | 77.5% | twenty | 39% | 49.4% | 72.5% | 51.2% | 49.1% | 65.7% | 70.7% | 66.3% | 71.4% | no cytotoxicity | 600 µM | > 700 µM | LDAI ([1]; 100 μM, 24 h): ns; Inhibition of TAGs 52:6; 52:7; 56:10; 56:9; and 62:4 (in words) ([2]; 200 μM, 24 h, HepG2 + OA): total inhibition; inhibition at 200 µM ([2]; 24 h, HepG2 + OA, vs control (+OA), read-out: Inhibition of accumulated TAG 46:3): 28.9%; inhibition at 200 µM ([2]; 24 h, HepG2 + OA, vs control (+OA), read-out: Inhibition of accumulated TAG 54:6): 49.4%; inhibition at 200 µM ([2]; 24 h, HepG2 + OA, vs control (+OA), read-out: Inhibition of accumulated TAG 56:7): 49.1%; inhibition at 200 µM ([2]; 24 h, HepG2 + OA, vs control (+OA), read-out: Inhibition of accumulated TAG 56:8): 58.1%; inhibition at 200 µM ([2]; 24 h, HepG2 + OA, vs control (+OA), read-out: Inhibition of accumulated TAG 58:11): 65.2%; inhibition at 200 µM ([2]; 24 h, HepG2 + OA, vs control (+OA), read-out: Inhibition of accumulated TAG 60:12): 66.4%; inhibition at 200 µM ([2]; 24 h, HepG2 + OA, vs control (+OA), read-out: Inhibition of accumulated TAG 62:14): 76.4% |
